In ChEMBL document CHEMBL1201862, “PubChem BioAssay data set” (2004):
Active and inactive are the calls of the source.

Columns and labels:
[1] = target: T1, Bcl-2-like protein 10 (Homo sapiens, UniProt Q9HD36); experiment: displacers of TR3 peptide from Bcl-B, primary screen, selectivity assay for Bfl-1 inhibitor project, biochemical, fluorescence polarization, FITC-TR3 peptide (AID 748);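 note: fluorescence polarization from a fluorescein-labelled TR3 peptide binding purified Bcl-B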
T1 sequence (Q9HD36 whole entry): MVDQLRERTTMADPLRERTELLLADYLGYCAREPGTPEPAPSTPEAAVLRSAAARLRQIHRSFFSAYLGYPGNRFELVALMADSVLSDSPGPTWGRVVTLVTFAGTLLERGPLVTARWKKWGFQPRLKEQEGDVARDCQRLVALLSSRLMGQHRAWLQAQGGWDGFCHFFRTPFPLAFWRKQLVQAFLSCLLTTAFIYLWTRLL

[2] = inhibitors of clade B AD8 Env fusion, dose response, cell-based, cherry-pick (AID 652062); format: functional;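 note: luciferase signal from cell-cell fusion driven by HIV-1 clade B AD8 Env; potency is for inhibitors of fusion seen as a drop in luminescence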
[3] = target: Paired box protein Pax-8 (Homo sapiens, UniProt Q06710); experiment: inhibitors of PAX8-driven TPO luciferase reporter, dose response, RMG-I cells, cherry-pick (AID 687027); format: functional, cell-based;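 note: luciferase reporter driven by Pax8 target thyroperoxidase promoter measured by SteadyGlo luminescence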
Chain of Paired box protein Pax-8 (Q06710 whole entry): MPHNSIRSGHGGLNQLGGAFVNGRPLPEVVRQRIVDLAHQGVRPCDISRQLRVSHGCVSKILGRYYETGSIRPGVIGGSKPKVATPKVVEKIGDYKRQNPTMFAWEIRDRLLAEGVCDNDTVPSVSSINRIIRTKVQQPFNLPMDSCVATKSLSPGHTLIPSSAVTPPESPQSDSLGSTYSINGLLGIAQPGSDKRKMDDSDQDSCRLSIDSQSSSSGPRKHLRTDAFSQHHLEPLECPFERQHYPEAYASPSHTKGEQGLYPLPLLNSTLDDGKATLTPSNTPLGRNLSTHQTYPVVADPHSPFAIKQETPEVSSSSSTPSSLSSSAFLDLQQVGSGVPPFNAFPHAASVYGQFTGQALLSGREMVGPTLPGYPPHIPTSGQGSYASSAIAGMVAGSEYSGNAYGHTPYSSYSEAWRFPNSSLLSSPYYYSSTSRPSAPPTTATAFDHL

[4] = NIH:OVCAR-3 ovarian cancer cell cytotoxicity, dose response, PAX8 inhibitor project, plate reader, dry powder samples (AID 743044); format: functional, cell-based
[5] = ZM109 Env clade C HIV-1 fusion inhibitors, dose response, HeLa effector, CEM target cells, luciferase, cherry-pick (AID 652058); format: functional, cell-based
[6] = inhibitors of HIV Env-driven cell fusion, dose response, cherry-pick (AID 652057); format: functional, cell-based
[7] = target: Prothrombin (Homo sapiens, UniProt P00734); experiment: Thrombin 1536 HTS Dose Response Confirmation. [Related pubchem assays: 1046 (Thrombin 1536 HTS; hits were confirmed in this assay)]; format: functional
[8] = target: T2, Corticotropin-releasing factor receptor 2/Corticotropin-releasing factor-binding protein (Homo sapiens, UniProt P24387+Q13324); experiment: Dose Response confirmation of uHTS hits for small molecule antagonists of the CRF-binding protein and CRF-R2 receptor complex.; format: functional; settings: read-out: IC50_Mean
T2 sequence (Q13324 whole entry): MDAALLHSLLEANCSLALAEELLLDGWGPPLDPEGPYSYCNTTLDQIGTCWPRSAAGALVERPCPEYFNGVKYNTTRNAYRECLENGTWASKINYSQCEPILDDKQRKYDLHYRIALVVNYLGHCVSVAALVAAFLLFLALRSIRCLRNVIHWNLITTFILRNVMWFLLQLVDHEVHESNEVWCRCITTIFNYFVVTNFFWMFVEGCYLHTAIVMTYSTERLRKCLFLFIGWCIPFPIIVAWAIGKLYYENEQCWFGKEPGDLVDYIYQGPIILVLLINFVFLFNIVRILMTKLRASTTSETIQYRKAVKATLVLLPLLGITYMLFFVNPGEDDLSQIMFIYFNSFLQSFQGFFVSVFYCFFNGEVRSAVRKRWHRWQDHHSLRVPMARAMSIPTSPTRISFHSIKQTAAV
T2 sequence (P24387 whole entry): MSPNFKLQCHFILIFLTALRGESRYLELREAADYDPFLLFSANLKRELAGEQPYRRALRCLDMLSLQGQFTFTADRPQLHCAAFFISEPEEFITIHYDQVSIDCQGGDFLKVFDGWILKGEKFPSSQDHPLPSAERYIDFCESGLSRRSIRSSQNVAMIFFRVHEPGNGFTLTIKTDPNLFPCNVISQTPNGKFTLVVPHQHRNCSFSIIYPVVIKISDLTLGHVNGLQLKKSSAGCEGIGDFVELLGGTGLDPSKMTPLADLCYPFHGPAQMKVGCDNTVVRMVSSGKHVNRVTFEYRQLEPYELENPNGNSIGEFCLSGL

[9] = CRF-BP/CRF-R2 complex antagonists, dose response, cell-based, uHTS hits, 384-well (AID 651639); format: functional, Homo sapiens; settings: read-out: IC50_Mean
[10] = target: T2, Corticotropin-releasing factor receptor 2/Corticotropin-releasing factor-binding protein; experiment: activators of CRF receptor 2 with binding protein – uHTS hits, confirmation (AID 602473); format: functional; settings: read-out: EC50_Mean
[11] = target: T3, Insulin-degrading enzyme (Homo sapiens, UniProt P14735); experiment: activators of endogenous IDE in HEK cells, dose response, cell-based, fluorescence polarization (AID 588439); format: functional
T3 sequence (P14735 whole entry): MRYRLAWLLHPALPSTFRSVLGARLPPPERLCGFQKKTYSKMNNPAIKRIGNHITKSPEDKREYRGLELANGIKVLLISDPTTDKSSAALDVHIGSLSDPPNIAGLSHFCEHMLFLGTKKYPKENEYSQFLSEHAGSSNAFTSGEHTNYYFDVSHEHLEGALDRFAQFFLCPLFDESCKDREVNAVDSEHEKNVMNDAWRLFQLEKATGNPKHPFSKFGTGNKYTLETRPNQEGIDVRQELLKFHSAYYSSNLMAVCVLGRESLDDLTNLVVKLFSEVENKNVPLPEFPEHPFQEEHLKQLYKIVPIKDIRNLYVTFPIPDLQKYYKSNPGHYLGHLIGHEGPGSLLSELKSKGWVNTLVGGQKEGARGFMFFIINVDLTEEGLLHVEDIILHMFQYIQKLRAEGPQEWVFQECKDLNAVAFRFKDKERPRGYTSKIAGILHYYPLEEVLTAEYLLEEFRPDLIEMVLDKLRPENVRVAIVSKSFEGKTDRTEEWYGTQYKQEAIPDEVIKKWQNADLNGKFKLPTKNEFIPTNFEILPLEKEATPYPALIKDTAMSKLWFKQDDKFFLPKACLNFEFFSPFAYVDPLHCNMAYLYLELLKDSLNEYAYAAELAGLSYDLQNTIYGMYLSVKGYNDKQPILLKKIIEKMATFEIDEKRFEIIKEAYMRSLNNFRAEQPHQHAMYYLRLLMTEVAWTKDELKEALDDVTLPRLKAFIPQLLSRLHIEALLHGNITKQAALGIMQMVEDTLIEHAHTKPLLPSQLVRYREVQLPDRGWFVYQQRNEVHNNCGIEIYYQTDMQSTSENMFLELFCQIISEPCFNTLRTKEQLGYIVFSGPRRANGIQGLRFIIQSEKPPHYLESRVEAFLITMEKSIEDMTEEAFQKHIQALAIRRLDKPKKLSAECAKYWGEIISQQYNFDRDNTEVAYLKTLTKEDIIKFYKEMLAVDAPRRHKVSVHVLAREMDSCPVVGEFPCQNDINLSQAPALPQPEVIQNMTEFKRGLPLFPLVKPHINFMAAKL

[12] = target: T3, Insulin-degrading enzyme; experiment: activators of recombinant IDE enzyme, dose response, counter-screen for IDE activator project, biochemical, fluorescence polarization (AID 588681)
[13] = test system: HEK293; experiment: HEK cell cytotoxicity by LDH release, dose response, cytotoxicity control for IDE activator project, fluorescence, HEK cells (AID 588440); format: functional, cell-based; settings: Homo sapiens;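 note: cytotoxicity by LDH release measuring loss of membrane integrity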
[14] = test system: HEK293; experiment: optical interference in Abeta FP readout, dose response, artefact control for IDE activator project, biochemical, fluorescence polarization (AID 588442); format: functional, cell-based; settings: Homo sapiens

Question: For `CCS(=O)(=O)NCc1ccc2c(c1)cc(C)n2C`, which IC50 [1] is on record?
Answer: The IC50 was > 50 µM (inactive).

Question: Which results are given for `C[C@@H]1CN([C@@H](C)CO)C(=O)Cc2cc(NS(=O)(=O)c3cccs3)ccc2O[C@H]1CN(C)Cc1ccc(C(F)(F)F)cc1`?
Answer: AC50 [2]: 25.8 µM (active); AC50 [3]: 5.33 µM (active); AC50 [4]: 32.8 µM (active); AC50 [5]: 1.39 µM (active); AC50 [6]: 10.1 µM (active)

Question: With `O=c1[nH]nc(SCc2nnc(-c3ccc([N+](=O)[O-])cc3)o2)n1C1CCCCC1` as the molecule, how does the IC50 [7] read?
Answer: Its IC50 is 4.04 µM (active).

Question: With `CC(=O)Nc1ccc(Nc2nc3ccccc3nc2NS(=O)(=O)c2ccc(Cl)c([N+](=O)[O-])c2)cc1` as the molecule, how does the IC50 [8] read?
Answer: The IC50 was 6.14 µM (active).

Question: What about the IC50 [9] of the same molecule?
Answer: The IC50 was 10.2 µM (active).

Question: What about the EC50 [10] of the same molecule?
Answer: The EC50 was > 53 µM (inactive).

Question: Which IC50 [7] does the source give for `O=C(COC(=O)CCC(=O)c1cccs1)Nc1ccccc1[N+](=O)[O-]` here?
Answer: The IC50 was 6.93 µM (active).

Question: What does the source list for `CCCCC[C@@H]1C=C(C(=O)O)[C@H](c2cccc(C)c2)N1S(=O)(=O)c1ccc(C)cc1`?
Answer: IC50 [8]: 36.6 µM (active); IC50 [9]: > 20 µM (inactive); EC50 [10]: 40.7 µM (active)

Question: With `CN(C)c1ccc(C=C2C(=O)OC(C)(C)OC2=O)cc1` as the molecule, how does the IC50 [8] read?
Answer: Its IC50 is 5.16 µM (active).

Question: What about the IC50 [9] of the same molecule?
Answer: Its IC50 is 7.91 µM (active).

Question: And the EC50 [10]?
Answer: Its EC50 is > 53 µM (inactive).

Question: What does the source list for `CN(c1ccccc1)S(=O)(=O)c1cccc(NC(=O)COc2cccc([N+](=O)[O-])c2)c1`?
Answer: EC50 [11]: > 54.7 µM (inactive); IC50 [8]: > 23.6 µM (inactive); EC50 [12]: > 54.7 µM (inactive); IC50 [9]: > 20 µM (inactive); IC50 [13]: > 89.2 µM (inactive); EC50 [10]: > 53 µM (inactive); EC50 [14]: > 55.9 µM (inactive)

Question: Which IC50 [7] does the source give for `CC(NC(=O)CN(C1CCCCC1)S(C)(=O)=O)c1ccccc1` (stereo not given) here?
Answer: Its IC50 is > 50 µM (not active).
